Reference: patent US8846653B2, “Delta-tocotrienol treatment and prevention of pancreatic cancer” (University of South Florida, priority 2006, dated 2014)

Experiments:
Format in all cases: cell-based, human
BXPC3 cells = assay: MTT assay of BXPC3 cultures, single 50 μM dose; design: MTT assay result, run 1 / MTT assay result, run 2 / MTT assay result, run 3 / MTT assay result, run 4 / MTT assay result, run 5 / MTT assay result, run 6 / MTT assay result, run 7 / MTT assay result, av (average) / MTT assay result, av-blank / MTT assay result, av: unit not given here; details: BXPC3, 50 μM; for MTT assay result, av-blank: average minus blank
Experimental: BXPC3 cells were cultured in complete […] media containing 10% fetal bovine serum (FBS) and 1% penicillin-streptomycin, and 1% L-glutamine. BxPc-3 pancreatic cancer cells were cultured in complete RPMI media containing 10% fetal bovine serum (FBS), and 1% penicillin-streptomycin, 1% HEPES buffer, 1% sodium pyruvate and 1% L-glutamine HPDE6-C7 cells were cultured in serum-free keratinocyte SFM media. All cells were maintained at 37° C. in a humidified incubator with 5% CO2. The cells were treated with a single 50 μM dose of vehicle (vehicle only, may be a solvent), T3 alpha (alpha tocotrienol), T3 beta (beta tocotrienol), T3 gamma (gamma tocotrienol), T3 delta (delta tocotrienol), T alpha (alpha tocopherol), T beta (beta tocopherol), TS (tocopherol succinate), GG (geranylgeraniol), SA (succinic acid). A control (no treatment) culture was grown alongside the treatments for comparison. Cell viability was measured using MTT assay at preselect times of 48 or 120 hours after treatment.

[1] = tested on: SW1990 pancreatic cancer cells; assay: MTS assay of SW1990 cultures, single 50 μM dose; details: SW1990, 50 μM
Experimental: SW1990 pancreatic cancer cells […] were cultured in complete DMEM media containing 10% fetal bovine serum (FBS) and 1% penicillin-streptomycin, and 1% L-glutamine. BxPc-3 pancreatic cancer cells were cultured in complete RPMI media containing 10% fetal bovine serum (FBS), and 1% penicillin-streptomycin, 1% HEPES buffer, 1% sodium pyruvate and 1% L-glutamine. HPDE6-C7 cells were cultured in serum-free keratinocyte SFM media. All cells were maintained at 37° C. in a humidified incubator with 5% CO2. The cells were treated with a single 50 μM dose of vehicle (ethanol extracted olive oil), T3 alpha (alpha tocotrienol), T3 beta (beta tocotrienol), T3 gamma (gamma tocotrienol), T3 delta (delta tocotrienol), T alpha (alpha tocopherol), T beta (beta tocopherol), TS (tocopherol succinate), GG (geranylgeraniol), SA (succinic acid). A control culture (i.e., only vehicle with no treatment) was grown alongside the treatments for comparison. Cell viability was measured using MTS assay at preselect times of 24, 48, or 72 hours after treatment.

MiaPaCa-2 cells = assay: MTT assay of MiaPaCa2 cultures, single 50 μM dose; design: rel amt (relative value set to the control): unit not given here; details: MiaPaCa2, 50 μM; for MTT assay result, av-blank: average minus blank; for MTT assay result, av: average of 7 runs
Experimental: MiaPaCa-2, BxPc-3, and HPDE6-C7 cells were cultured as described above, and treated with a single 50 μM dose of vehicle (ethanol extracted olive oil), T3 alpha (alpha tocotrienol), T3 beta (beta tocotrienol), T3 gamma (gamma tocotrienol), T3 delta (delta tocotrienol), T alpha (alpha tocopherol), T beta (beta tocopherol), TS (tocopherol succinate), GG (geranylgeraniol), SA (succinic acid). A control culture (vehicle only with no treatment) was grown alongside the treatments for comparison. Cell viability was measured using MTT assay at preselect times of 48 or 120 hours after treatment.

Structure (SMILES): CC(C)=CCC/C(C)=C/CC/C(C)=C/CC[C@]1(C)CCc2cc(O)cc(C)c2O1 [T3 delta, delta tocotrienol]
- rel amt (relative value set to the control) (BXPC3 cells; 48 hours): 95
- MTT assay result, av-blank (BXPC3 cells; 48 hours): 0.216
- MTT assay result, av (average) (BXPC3 cells; 48 hours, average of 7 runs): 0.265
- MTT assay result, run 1 (BXPC3 cells; 48 hours): 0.26
- MTT assay result, run 2 (BXPC3 cells; 48 hours): 0.255
- MTT assay result, run 3 (BXPC3 cells; 48 hours): 0.24
- MTT assay result, run 4 (BXPC3 cells; 48 hours): 0.263
- MTT assay result, run 5 (BXPC3 cells; 48 hours): 0.271
- MTT assay result, run 6 (BXPC3 cells; 48 hours): 0.277
- MTT assay result, run 7 (BXPC3 cells; 48 hours): 0.288
- rel amt (relative value set to the control) (BXPC3 cells; 120 hours (5 days)): 81
- MTT assay result, av-blank (BXPC3 cells; 120 hours (5 days)): 0.465
- MTT assay result, av (BXPC3 cells; 120 hours (5 days), average of 7 runs): 0.520
- MTT assay result, run 1 (BXPC3 cells; 120 hours (5 days)): 0.485
- MTT assay result, run 2 (BXPC3 cells; 120 hours (5 days)): 0.49
- MTT assay result, run 3 (BXPC3 cells; 120 hours (5 days)): 0.522
- MTT assay result, run 4 (BXPC3 cells; 120 hours (5 days)): 0.539
- MTT assay result, run 5 (BXPC3 cells; 120 hours (5 days)): 0.551
- MTT assay result, run 6 (BXPC3 cells; 120 hours (5 days)): 0.523
- MTT assay result, run 7 (BXPC3 cells; 120 hours (5 days)): 0.527
- rel amnt (relative value set to the control) ([1]; 24 hours): 97
- MTS assay result, run 1 ([1]; 24 hours): 0.158
- MTS assay result, run 2 ([1]; 24 hours): 0.149
- MTS assay result, run 3 ([1]; 24 hours): 0.157
- MTS assay result, run 4 ([1]; 24 hours): 0.126
- MTS assay result, run 5 ([1]; 24 hours): 0.147
- MTS assay result, run 6 ([1]; 24 hours): 0.135
- MTS assay result, run 7 ([1]; 24 hours): 0.13
- MTS assay result, run 8 ([1]; 24 hours): 0.142
- MTS assay result, run 9 ([1]; 24 hours): 0.143
- rel amnt (relative value set to the control) ([1]; 48 hours): 83
- MTS assay result, run 1 ([1]; 48 hours): 0.131
- MTS assay result, run 2 ([1]; 48 hours): 0.133
- MTS assay result, run 3 ([1]; 48 hours): 0.12
- MTS assay result, run 4 ([1]; 48 hours): 0.12
- MTS assay result, run 5 ([1]; 48 hours): 0.126
- MTS assay result, run 6 ([1]; 48 hours): 0.119
- MTS assay result, run 7 ([1]; 48 hours): 0.12
- MTS assay result, run 8 ([1]; 48 hours): 0.142
- MTS assay result, run 9 ([1]; 48 hours): 0.127
- rel amnt (relative value set to the control) ([1]; 72 hours): 132
- MTS assay result, run 1 ([1]; 72 hours): 0.667
- MTS assay result, run 2 ([1]; 72 hours): 0.615
- MTS assay result, run 3 ([1]; 72 hours): 0.61
- MTS assay result, run 4 ([1]; 72 hours): 0.587
- MTS assay result, run 5 ([1]; 72 hours): 0.582
- MTS assay result, run 6 ([1]; 72 hours): 0.491
- MTS assay result, run 7 ([1]; 72 hours): 0.52
- MTS assay result, run 8 ([1]; 72 hours): 0.604
- MTS assay result, run 9 ([1]; 72 hours): 0.584
- rel amt (relative value set to the control) (MiaPaCa-2 cells; 48 hours): 70
- MTT assay result, av-blank (MiaPaCa-2 cells; 48 hours): 0.217
- MTT assay result, av (MiaPaCa-2 cells; 48 hours): 0.263
- MTT assay result, run 1 (MiaPaCa-2 cells; 48 hours): 0.276
- MTT assay result, run 2 (MiaPaCa-2 cells; 48 hours): 0.284
- MTT assay result, run 3 (MiaPaCa-2 cells; 48 hours): 0.262
- MTT assay result, run 4 (MiaPaCa-2 cells; 48 hours): 0.239
- MTT assay result, run 5 (MiaPaCa-2 cells; 48 hours): 0.275
- MTT assay result, run 6 (MiaPaCa-2 cells; 48 hours): 0.239
- MTT assay result, run 7 (MiaPaCa-2 cells; 48 hours): 0.269
- rel amt (relative value set to the control) (MiaPaCa-2 cells; 120 hours (5 days)): 72
- MTT assay result, av-blank (MiaPaCa-2 cells; 120 hours (5 days)): 1.304
- MTT assay result, av (MiaPaCa-2 cells; 120 hours (5 days)): 1.356
- MTT assay result, run 1 (MiaPaCa-2 cells; 120 hours (5 days)): 1.344
- MTT assay result, run 2 (MiaPaCa-2 cells; 120 hours (5 days)): 1.314
- MTT assay result, run 3 (MiaPaCa-2 cells; 120 hours (5 days)): 1.27
- MTT assay result, run 4 (MiaPaCa-2 cells; 120 hours (5 days)): 1.337
- MTT assay result, run 5 (MiaPaCa-2 cells; 120 hours (5 days)): 1.579
- MTT assay result, run 6 (MiaPaCa-2 cells; 120 hours (5 days)): 1.308
- MTT assay result, run 7 (MiaPaCa-2 cells; 120 hours (5 days)): 1.341
